Experimental findings from US10590086B2, “Pharmaceutical compound” (IOmet Pharma Ltd., priority 2014, dated 2020) are described below.

Molecules are shown by their SMILES.

In assay [1] the target is T1, IDO (Homo sapiens, UniProt P14902). The experiment in a line: hIDO biochemical coupled assay. Particulars: 45 μM L-tryptophan, read-out: hIDO biochemical assay pIC50 (converted).
Text: Two different assays were employed: 1. a cell-based assay for detecting the effect of test compounds on kynurenine production in two different cancer cell types. This assay utilised cancer cells which expressed either TDO or IDO and as such was used as a means of testing compound activity at these two enzymes in a cell-based context. 2. a TDO and IDO biochemical coupled assay which utilised recombinantly produced and purified TDO and IDO enzymes in combination with the enzyme formamidase. This coupled enzyme system allowed conversion of N-formylkynurenine produced by TDO or IDO activity to kynurenine which was then quantified by fluorescence following addition of Erhlich's Reagent The protocols for these are set out below.
Assay [2] concerns the target T1, IDO. Kind of assay: SKOV3 kynurenine cell-based assay (IDO induced by IFN-γ). Particulars: 48 hours, read-out: SKOV3 Kynurenine cell based assay pIC50 (converted). On the set-up: IDO expression was induced in the SKOV3 cells by the addition of 500 ng/ml IFN-γ; endogenous in cells; host or cells: SKOV3 (human ovarian adenocarcinoma), induced with IFN-γ. In a few lines: (§1)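 A172 glioblastoma cells (TDO) or SKOV3 ovarian cells (IDO, induced with 500 ng/ml IFN-γ) were grown in phenol red-free RPMI with 10% FCS, 2 mM L-glutamine and 500 μM L-tryptophan, ± test compound, 48 hours at 37° C. Supernatant kynurenine was measured by absorbance at 490 nm after Erhlich's reagent.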

Assay [3] has as its target T2, TDO (Homo sapiens, UniProt P48775). Kind of assay: A172 kynurenine cell-based assay. On the set-up: This assay utilised cancer cells which expressed either TDO or IDO; endogenous in cells; host or cells: A172 (human glioblastoma). The conditions noted are these: A172 human glioblastoma cells, 48 hours, read-out: A172 Kynurenine cell based assay pIC50 (converted). In a few lines: as §1

Assay [4] concerns the target T2, TDO. The experiment in a line: hTDO biochemical coupled assay. Particulars: 330 μM L-tryptophan, read-out: hTDO biochemical assay pIC50 (converted).
The mark [5] stands for this setting: SKOV3 human ovarian adenocarcinoma cells, 500 ng/ml IFN-γ, 500 μM L-tryptophan.

T1 sequence (P14902 whole entry): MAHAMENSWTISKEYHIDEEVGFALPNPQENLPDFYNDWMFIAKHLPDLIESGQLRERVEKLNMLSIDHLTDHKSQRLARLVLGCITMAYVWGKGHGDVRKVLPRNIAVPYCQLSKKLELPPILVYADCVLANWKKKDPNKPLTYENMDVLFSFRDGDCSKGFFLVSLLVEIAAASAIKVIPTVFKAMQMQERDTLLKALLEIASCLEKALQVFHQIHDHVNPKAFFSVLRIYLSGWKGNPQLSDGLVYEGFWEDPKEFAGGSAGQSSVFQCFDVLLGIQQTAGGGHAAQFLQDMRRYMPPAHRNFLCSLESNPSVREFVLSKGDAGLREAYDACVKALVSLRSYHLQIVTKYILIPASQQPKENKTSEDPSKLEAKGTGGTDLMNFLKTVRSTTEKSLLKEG
T2 sequence (P48775 whole entry): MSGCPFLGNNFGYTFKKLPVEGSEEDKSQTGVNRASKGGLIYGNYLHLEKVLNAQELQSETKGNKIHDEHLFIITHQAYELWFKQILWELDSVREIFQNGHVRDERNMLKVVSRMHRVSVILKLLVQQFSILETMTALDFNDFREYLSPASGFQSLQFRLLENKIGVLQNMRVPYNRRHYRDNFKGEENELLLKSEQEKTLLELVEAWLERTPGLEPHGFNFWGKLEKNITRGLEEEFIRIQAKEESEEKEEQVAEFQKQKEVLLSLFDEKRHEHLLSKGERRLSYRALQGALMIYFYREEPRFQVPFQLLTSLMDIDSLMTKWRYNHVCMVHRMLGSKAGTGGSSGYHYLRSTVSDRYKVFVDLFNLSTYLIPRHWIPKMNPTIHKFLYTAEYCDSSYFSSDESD

As to `CS(=O)(=O)NC1CN(c2cc(Cl)cc3[nH]ncc23)C1` [Compound 431], the IC50 was less than 3.16 µM in assay [1] (17 minutes, room temperature); greater than 100 µM in assay [2] (setting [5]); less than 3.16 µM in assay [3] (500 μM L-tryptophan); less than 3.16 µM in assay [4] (17 minutes, room temperature).

For `Cc1nc2c(n1C)CN(c1cc(Cl)cc3[nH]ncc13)CC2` [Compound 356], the IC50 is greater than 100 µM in assay [1] (17 minutes, room temperature); 3.24 to 31.6 µM in assay [2] (setting [5]); 3.24 to 31.6 µM in assay [3] (500 μM L-tryptophan); 3.24 to 31.6 µM in assay [4] (17 minutes, room temperature).

As to `CS(=O)(=O)Nc1ccc2c(c1)CCN(c1cc(Cl)cc3[nH]ncc13)C2` [Compound 342], the IC50 was greater than 100 µM in assay [1] (17 minutes, room temperature); 3.24 to 31.6 µM in assay [2] (setting [5]); less than 3.16 µM in assay [3] (500 μM L-tryptophan); less than 3.16 µM in assay [4] (17 minutes, room temperature).

`CC(=O)N(C)CC1CCN(c2cc(Cl)cc3[nH]ncc23)CC1` [Compound 282]: the IC50 in assay [1] (17 minutes, room temperature) is 32.4 to 100 µM; in assay [2] (setting [5]) it was 3.24 to 31.6 µM; in assay [3] (500 μM L-tryptophan) it was less than 3.16 µM; in assay [4] (17 minutes, room temperature), less than 3.16 µM.

As for `Cc1nc2c(o1)CN(c1cc(Cl)cc3[nH]ncc13)CC2(C)C` [Compound 425], the IC50 in assay [1] (17 minutes, room temperature) was greater than 100 µM; in assay [2] (setting [5]), greater than 100 µM; in assay [3] (500 μM L-tryptophan), less than 3.16 µM; in assay [4] (17 minutes, room temperature) it was less than 3.16 µM.

Turning to `CN1CCN(C2CCN(c3cc(Cl)cc4[nH]ncc34)CC2)C1=O` [Compound 411], the IC50 was greater than 100 µM in assay [1] (17 minutes, room temperature); less than 3.16 µM in assay [2] (setting [5]); less than 3.16 µM in assay [3] (500 μM L-tryptophan); less than 3.16 µM in assay [4] (17 minutes, room temperature).

On to `Clc1cc(N2CC=CCC2)c2cn[nH]c2c1` [Compound 345], for which the IC50 in assay [1] (17 minutes, room temperature) was 3.24 to 31.6 µM; in assay [2] (setting [5]) it was 3.24 to 31.6 µM; in assay [3] (500 μM L-tryptophan) it was less than 3.16 µM; in assay [4] (17 minutes, room temperature) it was less than 3.16 µM.

On to `Clc1cc(N2CCN(c3ccncc3)CC2)c2cn[nH]c2c1` [Compound 374], for which the IC50 in assay [1] (17 minutes, room temperature) was greater than 100 µM; in assay [2] (setting [5]), 32.4 to 100 µM; in assay [3] (500 μM L-tryptophan), less than 3.16 µM; in assay [4] (17 minutes, room temperature) it was 3.24 to 31.6 µM.

Consider `CN(CC1CCCN(c2cc(Cl)cc3[nH]ncc23)C1)S(C)(=O)=O` (stereo not shown) [Compound 285], for which the IC50 is greater than 100 µM in assay [1] (17 minutes, room temperature); 32.4 to 100 µM in assay [2] (setting [5]); 3.24 to 31.6 µM in assay [3] (500 μM L-tryptophan); 3.24 to 31.6 µM in assay [4] (17 minutes, room temperature).

Take `NS(=O)(=O)N1CCC2(CCN(c3cc(Cl)cc4[nH]ncc34)CC2)C1` [Compound 361]: the IC50 in assay [1] (17 minutes, room temperature) was 3.24 to 31.6 µM; in assay [2] (setting [5]) it was 3.24 to 31.6 µM; in assay [3] (500 μM L-tryptophan), less than 3.16 µM; in assay [4] (17 minutes, room temperature), less than 3.16 µM.

Take `Cn1cc2c(n1)CCN(c1cc(Cl)cc3[nH]ncc13)C2` [Compound 360]: the IC50 is 32.4 to 100 µM in assay [1] (17 minutes, room temperature); 3.24 to 31.6 µM in assay [2] (setting [5]); less than 3.16 µM in assay [3] (500 μM L-tryptophan); less than 3.16 µM in assay [4] (17 minutes, room temperature).

For `CNS(=O)(=O)c1ccc(-c2cc(Cl)cc3[nH]ncc23)cc1` [Compound 300], the IC50 is 32.4 to 100 µM in assay [1] (17 minutes, room temperature); 3.24 to 31.6 µM in assay [2] (setting [5]); less than 3.16 µM in assay [3] (500 μM L-tryptophan); less than 3.16 µM in assay [4] (17 minutes, room temperature).

Regarding `CC(=O)N1CCN(c2ccc3[nH]ncc3c2)CC1` [Compound 41], the IC50 was greater than 100 µM in assay [1] (17 minutes, room temperature); greater than 100 µM in assay [2] (setting [5]); 3.24 to 31.6 µM in assay [3] (500 μM L-tryptophan); 32.4 to 100 µM in assay [4] (17 minutes, room temperature).

With `CN(C)C(=O)C1CCCN(c2cc(Cl)cc3[nH]ncc23)C1` (stereo not shown) [Compound 209], the IC50 in assay [1] (17 minutes, room temperature) is greater than 100 µM; in assay [2] (setting [5]), 32.4 to 100 µM; in assay [3] (500 μM L-tryptophan) it was 32.4 to 100 µM; in assay [4] (17 minutes, room temperature), 32.4 to 100 µM.

Regarding `CS(=O)(=O)N1CCC(n2cc(-c3cc(Cl)cc4[nH]ncc34)cn2)CC1` [Compound 347], the IC50 in assay [1] (17 minutes, room temperature) was greater than 100 µM; in assay [2] (setting [5]), 3.24 to 31.6 µM; in assay [3] (500 μM L-tryptophan) it was less than 3.16 µM; in assay [4] (17 minutes, room temperature), less than 3.16 µM.

Take `OC1(c2ccccc2)CCN(c2cc(Cl)cc3[nH]ncc23)CC1` [Compound 207]: the IC50 in assay [1] (17 minutes, room temperature) is 3.24 to 31.6 µM; in assay [2] (setting [5]), 3.24 to 31.6 µM; in assay [3] (500 μM L-tryptophan), less than 3.16 µM; in assay [4] (17 minutes, room temperature) it was less than 3.16 µM.

For `CC(=O)N1CCN(c2cc(Cl)cc3[nH]ncc23)CC1CO` (stereo not shown) [Compound 454], the IC50 is 32.4 to 100 µM in assay [1] (17 minutes, room temperature); greater than 100 µM in assay [2] (setting [5]); less than 3.16 µM in assay [3] (500 μM L-tryptophan); less than 3.16 µM in assay [4] (17 minutes, room temperature).

`CC(=O)N1CCC2(CCN(c3cc(Cl)cc4[nH]ncc34)CC2)C1` [Compound 350]: the IC50 in assay [1] (17 minutes, room temperature) was 32.4 to 100 µM; in assay [2] (setting [5]) it was 3.24 to 31.6 µM; in assay [3] (500 μM L-tryptophan), less than 3.16 µM; in assay [4] (17 minutes, room temperature), less than 3.16 µM.

With `O=S(=O)(c1ccccc1)N1CCN(c2cccc3[nH]ncc23)CC1` [Compound 15], the IC50 is greater than 100 µM in assay [1] (17 minutes, room temperature); 32.4 to 100 µM in assay [2] (setting [5]); 3.24 to 31.6 µM in assay [3] (500 μM L-tryptophan); 32.4 to 100 µM in assay [4] (17 minutes, room temperature).

Consider `CC(=O)NC1CCN(c2cc(Cl)cc3[nH]ncc23)C1` (stereo not shown) [Compound 198], for which the IC50 in assay [1] (17 minutes, room temperature) was 3.24 to 31.6 µM; in assay [2] (setting [5]), 3.24 to 31.6 µM; in assay [3] (500 μM L-tryptophan), less than 3.16 µM; in assay [4] (17 minutes, room temperature) it was less than 3.16 µM.

`CC(C)Cn1cc(-c2cc(Cl)cc3[nH]ncc23)cn1` [Compound 396, 6-chloro-4-(1-isobutyl-1H-pyrazol-4-yl)-1H-indazole]: the IC50 in assay [1] (17 minutes, room temperature) was greater than 100 µM; in assay [1], greater than 257 µM; in assay [2] (SKOV3 cells, IDO induced by 500 ng/ml IFN-γ), greater than 10 µM; in assay [2] (setting [5]) it was greater than 100 µM; in assay [3] (500 μM L-tryptophan), less than 3.16 µM; in assay [3], 0.832 µM. In addition, the IC50 in assay [4] (17 minutes, room temperature) is 3.24 to 31.6 µM; in assay [4], 3.63 µM.

For `NS(=O)(=O)N1CCC2(CCN(c3cc(Cl)cc4[nH]ncc34)CC2)CC1` [Compound 363], the IC50 in assay [1] (17 minutes, room temperature) was 32.4 to 100 µM; in assay [2] (setting [5]), 3.24 to 31.6 µM; in assay [3] (500 μM L-tryptophan), less than 3.16 µM; in assay [4] (17 minutes, room temperature), less than 3.16 µM.

With `CC(=O)N1CCN(c2cc(Cl)cc3c(N)noc23)CC1` [Compound 303], the IC50 was greater than 100 µM in assay [1] (17 minutes, room temperature); greater than 100 µM in assay [2] (setting [5]); 3.24 to 31.6 µM in assay [3] (500 μM L-tryptophan); greater than 100 µM in assay [4] (17 minutes, room temperature).

`Clc1cc(N2CCN(c3ncccn3)CC2)c2cn[nH]c2c1` [Compound 309]: the IC50 was greater than 100 µM in assay [1] (17 minutes, room temperature); greater than 100 µM in assay [2] (setting [5]); less than 3.16 µM in assay [3] (500 μM L-tryptophan); 3.24 to 31.6 µM in assay [4] (17 minutes, room temperature).

For `OC(Cc1ccccc1)c1cc(Cl)cc2[nH]ncc12` (stereo not shown) [Compound 281], the IC50 in assay [1] (17 minutes, room temperature) was 3.24 to 31.6 µM; in assay [2] (setting [5]), 3.24 to 31.6 µM; in assay [3] (500 μM L-tryptophan) it was less than 3.16 µM; in assay [4] (17 minutes, room temperature), less than 3.16 µM.

As to `O=C1NC2(CCN(c3cc(Cl)cc4[nH]ncc34)CC2)C(=O)N1CC1CCOCC1` [Compound 391], the IC50 in assay [1] (17 minutes, room temperature) was less than 3.16 µM; in assay [2] (setting [5]), less than 3.16 µM; in assay [3] (500 μM L-tryptophan), less than 3.16 µM; in assay [4] (17 minutes, room temperature) it was less than 3.16 µM.

Regarding `CC(=O)N1CCN(c2cc(C#N)cc3[nH]ncc23)CC1` [Compound 323], the IC50 in assay [1] (17 minutes, room temperature) was greater than 100 µM; in assay [2] (setting [5]), 32.4 to 100 µM; in assay [3] (500 μM L-tryptophan) it was 32.4 to 100 µM; in assay [4] (17 minutes, room temperature), greater than 100 µM.

As for `CS(=O)(=O)N1CCN(C2CCN(c3cc(Cl)cc4[nH]ncc34)CC2)CC1` [Compound 453], the IC50 in assay [1] (17 minutes, room temperature) was 3.24 to 31.6 µM; in assay [2] (setting [5]) it was greater than 100 µM; in assay [3] (500 μM L-tryptophan), less than 3.16 µM; in assay [4] (17 minutes, room temperature) it was less than 3.16 µM.

For the compound `CC(=O)N(C)C1CCN(c2cc(Cl)cc3[nH]ncc23)CC1(C)C` (stereo not shown) [Compound 450], the IC50 was less than 3.16 µM in assay [1] (17 minutes, room temperature); less than 3.16 µM in assay [2] (setting [5]); less than 3.16 µM in assay [3] (500 μM L-tryptophan); less than 3.16 µM in assay [4] (17 minutes, room temperature).

Turning to `CC(=O)N1CCN(c2cccc3[nH]ncc23)CC1(C)C` [Compound 25], the IC50 in assay [1] (17 minutes, room temperature) was 32.4 to 100 µM; in assay [2] (setting [5]), 3.24 to 31.6 µM; in assay [3] (500 μM L-tryptophan), less than 3.16 µM; in assay [4] (17 minutes, room temperature), less than 3.16 µM.
